In ChEMBL document CHEMBL3045535, “Evaluation of lufenuron as a chemosterilant against fruit flies of the genus Anastrepha (Diptera: Tephritidae)” (2010):
Active and inactive are the calls of the source. The rule behind the calls is not given here.

Tests used:
Anastrepha striata [1] = assay: Reduction of fertility in 7 days old adult of Anastrepha striata assessed as reduction of egg hatching at 30 mg/g treated with diet measured after 3 days oviposition; type: functional; set-up: scale not given: the % may be the effect or the level left
Anastrepha ludens [2] = assay: Reduction of fertility in 7 days old adult of Anastrepha ludens assessed as reduction of egg hatching at 5 mg/g treated with diet measured after 11 days oviposition; type: functional; set-up: scale not given: the % may be the effect or the level left
Anastrepha ludens [3] = assay: Reduction of fertility in 7 days old adult of Anastrepha ludens assessed as reduction of egg hatching at 1 mg/g treated with diet measured after 11 days oviposition; type: functional; set-up: scale not given: the % may be the effect or the level left
Anastrepha serpentina [4] = assay: Effect on fecundity in 7 days old adult of Anastrepha serpentina at 0.1 to 30 mg/g treated with diet after 24 hr; type: functional, organism-based
Anastrepha obliqua [5] = assay: Reduction of fertility in 7 days old adult of Anastrepha obliqua assessed as reduction of egg hatching at 10 mg/g treated with diet measured after 3 days oviposition; type: functional; set-up: scale not given: the % may be the effect or the level left
Anastrepha obliqua [6] = assay: Reduction of fertility in 7 days old adult of Anastrepha obliqua assessed as reduction of egg hatching at 5 mg/g treated with diet measured after 5 days oviposition; type: functional; set-up: scale not given: the % may be the effect or the level left
Anastrepha obliqua [7] = assay: Reduction of fertility in 7 days old adult of Anastrepha obliqua assessed as reduction of egg hatching at 5 mg/g treated with diet measured after 1 day oviposition; type: functional; set-up: scale not given: the % may be the effect or the level left
Anastrepha ludens [8] = assay: Reduction of fertility in 7 days old adult of Anastrepha ludens assessed as reduction of egg hatching at 1 mg/g treated with diet measured after 3 days oviposition; type: functional; set-up: scale not given: the % may be the effect or the level left
Anastrepha ludens [9] = assay: Reduction of fertility in 7 days old adult of Anastrepha ludens assessed as reduction of egg hatching at 1 mg/g treated with diet measured after 1 day oviposition; type: functional; set-up: scale not given: the % may be the effect or the level left
Anastrepha ludens [10] = assay: Reduction of fertility in 7 days old adult of Anastrepha ludens assessed as reduction of egg hatching at 0.5 mg/g treated with diet measured after 9 days oviposition; type: functional; set-up: scale not given: the % may be the effect or the level left
Anastrepha serpentina [11] = assay: Reduction of fertility in 7 days old adult of Anastrepha serpentina assessed as reduction of egg hatching at 0.1 mg/g treated with diet measured after 5 days oviposition; type: functional; set-up: scale not given: the % may be the effect or the level left
Anastrepha obliqua [12] = assay: Reduction of fertility in 7 days old adult of Anastrepha obliqua assessed as reduction of egg hatching at 10 mg/g treated with diet measured after 11 days oviposition; type: functional; set-up: scale not given: the % may be the effect or the level left
Anastrepha obliqua [13] = assay: Reduction of fertility in 7 days old adult of Anastrepha obliqua assessed as reduction of egg hatching at 0.5 mg/g treated with diet measured after 9 days oviposition; type: functional; set-up: scale not given: the % may be the effect or the level left
Anastrepha obliqua [14] = assay: Reduction of fertility in 7 days old adult of Anastrepha obliqua assessed as reduction of egg hatching at 0.1 mg/g treated with diet measured after 7 days oviposition; type: functional; set-up: scale not given: the % may be the effect or the level left
Anastrepha ludens [15] = assay: Reduction of fertility in 7 days old adult of Anastrepha ludens assessed as reduction of egg hatching at 30 mg/g treated with diet measured after 11 days oviposition; type: functional; set-up: scale not given: the % may be the effect or the level left
Anastrepha ludens [16] = assay: Reduction of fertility in 7 days old adult of Anastrepha ludens assessed as reduction of egg hatching at 30 mg/g treated with diet measured after 9 days oviposition; type: functional; set-up: scale not given: the % may be the effect or the level left
Anastrepha striata [17] = assay: Reduction of fertility in 7 days old adult of Anastrepha striata assessed as reduction of egg hatching at 5 mg/g treated with diet measured after 1 day oviposition; type: functional; set-up: scale not given: the % may be the effect or the level left
Anastrepha striata [18] = assay: Reduction of fertility in 7 days old adult of Anastrepha striata assessed as reduction of egg hatching at 1 mg/g treated with diet measured after 11 days oviposition; type: functional; set-up: scale not given: the % may be the effect or the level left
Anastrepha striata [19] = assay: Reduction of fertility in 7 days old adult of Anastrepha striata assessed as reduction of egg hatching at 1 mg/g treated with diet measured after 9 days oviposition; type: functional; set-up: scale not given: the % may be the effect or the level left
Anastrepha striata [20] = assay: Reduction of fertility in 7 days old adult of Anastrepha striata assessed as reduction of egg hatching at 1 mg/g treated with diet measured after 3 days oviposition; type: functional; set-up: scale not given: the % may be the effect or the level left
Anastrepha striata [21] = assay: Reduction of fertility in 7 days old adult of Anastrepha striata assessed as reduction of egg hatching at 0.5 mg/g treated with diet measured after 11 days oviposition; type: functional; set-up: scale not given: the % may be the effect or the level left
Anastrepha striata [22] = assay: Reduction of fertility in 7 days old adult of Anastrepha striata assessed as reduction of egg hatching at 0.5 mg/g treated with diet measured after 3 days oviposition; type: functional; set-up: scale not given: the % may be the effect or the level left
Anastrepha serpentina [23] = assay: Reduction of fertility in 7 days old adult of Anastrepha serpentina assessed as reduction of egg hatching at 0.5 mg/g treated with diet measured after 11 days oviposition; type: functional; set-up: scale not given: the % may be the effect or the level left
Anastrepha striata [24] = assay: Reduction of fertility in 7 days old adult of Anastrepha striata assessed as reduction of egg hatching at 0.1 mg/g treated with diet measured after 7 days oviposition; type: functional; set-up: scale not given: the % may be the effect or the level left
Anastrepha striata [25] = assay: Reduction of fertility in 7 days old adult of Anastrepha striata assessed as reduction of egg hatching at 0.1 mg/g treated with diet measured after 5 days oviposition; type: functional; set-up: scale not given: the % may be the effect or the level left
Anastrepha serpentina [26] = assay: Reduction of fertility in 7 days old adult of Anastrepha serpentina assessed as reduction of egg hatching at 30 mg/g treated with diet measured after 9 days oviposition; type: functional; set-up: scale not given: the % may be the effect or the level left
Anastrepha serpentina [27] = assay: Reduction of fertility in 7 days old adult of Anastrepha serpentina assessed as reduction of egg hatching at 30 mg/g treated with diet measured after 3 days oviposition; type: functional; set-up: scale not given: the % may be the effect or the level left
Anastrepha serpentina [28] = assay: Reduction of fertility in 7 days old adult of Anastrepha serpentina assessed as reduction of egg hatching at 30 mg/g treated with diet measured after 1 day oviposition; type: functional; set-up: scale not given: the % may be the effect or the level left
Anastrepha serpentina [29] = assay: Reduction of fertility in 7 days old adult of Anastrepha serpentina assessed as reduction of egg hatching at 10 mg/g treated with diet measured after 9 days oviposition; type: functional; set-up: scale not given: the % may be the effect or the level left
Anastrepha serpentina [30] = assay: Reduction of fertility in 7 days old adult of Anastrepha serpentina assessed as reduction of egg hatching at 5 mg/g treated with diet measured after 7 days oviposition; type: functional; set-up: scale not given: the % may be the effect or the level left
Anastrepha serpentina [31] = assay: Reduction of fertility in 7 days old adult of Anastrepha serpentina assessed as reduction of egg hatching at 1 mg/g treated with diet measured after 1 day oviposition; type: functional; set-up: scale not given: the % may be the effect or the level left
Anastrepha striata [32] = assay: Reduction of fertility in 7 days old adult of Anastrepha striata assessed as reduction of egg hatching at 10 mg/g treated with diet measured after 9 days oviposition; type: functional; set-up: scale not given: the % may be the effect or the level left
Anastrepha striata [33] = assay: Reduction of fertility in 7 days old adult of Anastrepha striata assessed as reduction of egg hatching at 10 mg/g treated with diet measured after 5 days oviposition; type: functional; set-up: scale not given: the % may be the effect or the level left
Anastrepha striata [34] = assay: Reduction of fertility in 7 days old adult of Anastrepha striata assessed as reduction of egg hatching at 10 mg/g treated with diet measured after 7 days oviposition; type: functional; set-up: scale not given: the % may be the effect or the level left
Anastrepha striata [35] = assay: Reduction of fertility in 7 days old adult of Anastrepha striata assessed as reduction of egg hatching at 5 mg/g treated with diet measured after 5 days oviposition; type: functional; set-up: scale not given: the % may be the effect or the level left
Anastrepha serpentina [36] = assay: Effect on fertility in 7 days old adult female of Anastrepha serpentina at 30 mg/g treated with diet after 24 hr in presence of untreated adult male of Anastrepha serpentina; type: functional, organism-based
Anastrepha obliqua [37] = assay: Effect on fertility in 7 days old adult female of Anastrepha obliqua at 30 mg/g treated with diet after 24 hr in presence of untreated adult male of Anastrepha obliqua; type: functional, organism-based
Anastrepha striata [38] = assay: Effect on fecundity in 7 days old adult male of Anastrepha striata at 30 mg/g treated with diet after 24 hr in presence of untreated adult female of Anastrepha striata; type: functional, organism-based
Anastrepha striata [39] = assay: Effect on fecundity in 7 days old adult female of Anastrepha striata at 30 mg/g treated with diet after 24 hr in presence of untreated adult male of Anastrepha striata; type: functional, organism-based
Anastrepha serpentina [40] = assay: Effect on fecundity in 7 days old adult female of Anastrepha serpentina at 30 mg/g treated with diet after 24 hr in presence of untreated adult male of Anastrepha serpentina; type: functional, organism-based

O=C(NC(=O)c1c(F)cccc1F)Nc1cc(Cl)c(OC(F)(F)C(F)C(F)(F)F)cc1Cl (racemic) [LUFENURON]
Activity (Anastrepha striata [1]): 8.7% | Activity (Anastrepha ludens [2]): 32.7% | Activity (Anastrepha ludens [3]): 40% | Activity (Anastrepha serpentina [4]): Active | Activity (Anastrepha obliqua [5]): 1.3% | Activity (Anastrepha obliqua [6]): 0% | Activity (Anastrepha obliqua [7]): 1.3% | Activity (Anastrepha ludens [8]): 9.3% | Activity (Anastrepha ludens [9]): 8% | Activity (Anastrepha ludens [10]): 16% | Activity (Anastrepha serpentina [11]): 74.6% | Activity (Anastrepha obliqua [12]): 0.7% | Activity (Anastrepha obliqua [13]): 4.7% | Activity (Anastrepha obliqua [14]): 8% | Activity (Anastrepha ludens [15]): 15.3% | Activity (Anastrepha ludens [16]): 15.3% | Activity (Anastrepha striata [17]): 3.3% | Activity (Anastrepha striata [18]): 8.7% | Activity (Anastrepha striata [19]): 4.7% | Activity (Anastrepha striata [20]): 8% | Activity (Anastrepha striata [21]): 28.7% | Activity (Anastrepha striata [22]): 22.7% | Activity (Anastrepha serpentina [23]): 86% | Activity (Anastrepha striata [24]): 72% | Activity (Anastrepha striata [25]): 60.7% | Activity (Anastrepha serpentina [26]): 76.7% | Activity (Anastrepha serpentina [27]): 72.3% | Activity (Anastrepha serpentina [28]): 49.2% | Activity (Anastrepha serpentina [29]): 85.3% | Activity (Anastrepha serpentina [30]): 96.7% | Activity (Anastrepha serpentina [31]): 42.7% | Activity (Anastrepha striata [32]): 6% | Activity (Anastrepha striata [33]): 2% | Activity (Anastrepha striata [34]): 0% | Activity (Anastrepha striata [35]): 2.7% | Activity (Anastrepha serpentina [36]): inactive | Activity (Anastrepha obliqua [37]): inactive | Activity (Anastrepha striata [38]): inactive | Activity (Anastrepha striata [39]): inactive | Activity (Anastrepha serpentina [40]): inactive
